Organism: Rattus norvegicus
Experiment: Open TG-GATES - Regimen: Single
Format: toxicity, organism-based, Sprague-Dawley
Set-up: regimen Single, gender Male, age 6 weeks
Settings: in vivo, po, 100 mg/kg, route gavage, dose level Low; for APTT / Bas / Eos / Fbg / Hb / Ht / Lym / MCH / MCHC / MCV / Mono / Neu / PT / Plat / RBC / Ret / WBC: tissue Blood; for KIDNEY_L / KIDNEY_R / KIDNEY_TOTAL: tissue Kidney; for LIVER: tissue Liver; for ALP / ALT / AST / CRE / DBIL / GLC / IP / K / LDH / Na / PL / RALB / TBIL / TC / TP / gamma-GTP: tissue Plasma

Compound `Clc1ccccc1CN1CCc2sccc2C1` [TICLOPIDINE] has a TERMINAL_BW (3 h) of 210.7 g, an APTT (3 h) of 19.6 s and a Bas (3 h) of 0.2%. For the same compound, the Eos (3 h) was 0.8%, the Fbg (3 h) was 226.4 mg/dL and the Hb (3 h) was 13.4 g/dL. It also gave a Ht (3 h) of 38.3%, a Lym (3 h) of 78.6% and an MCH (3 h) of 21.4 pg. The MCHC (3 h) was 35%, the MCV (3 h) was 61.1 fL and the Mono (3 h) was 2.8%. It also gave a Neu (3 h) of 16.6%, a PT (3 h) of 12.2 s and a Plat (3 h) of 117.9 x10_4/uL. It also gave an RBC (3 h) of 628 x10_4/ul, a Ret (3 h) of 8.1% and a WBC (3 h) of 70.6 x10_2/uL. The KIDNEY_L (3 h) was 1 g, the KIDNEY_R (3 h) was 1 g and the KIDNEY_TOTAL (3 h) was 2 g. It also gave an LIVER (3 h) of 9 g, an ALP (3 h) of 1125 IU/L and an ALT (3 h) of 35 IU/L. It also gave an AST (3 h) of 71 IU/L, a CRE (3 h) of 0.4 mg/dL and a DBIL (3 h) of 0.076 mg/dL. The GLC (3 h) was 200.6 mg/dL, the IP (3 h) was 10.6 mg/dL and the K (3 h) was 3.9 meq/L. The LDH (3 h) was 155.4 IU/L, the Na (3 h) was 141.4 meq/L and the PL (3 h) was 132.2 mg/dL. For the same compound, the RALB (3 h) was 3.3 g/dL, the TBIL (3 h) was 0.1 mg/dL and the TC (3 h) was 70.2 mg/dL. For the same compound, the TP (3 h) was 5.5 g/dL, the gamma-GTP (3 h) was 0.8 IU/L and the TERMINAL_BW (6 h) was 209.6 g. It also gave an APTT (6 h) of 18.1 s, a Bas (6 h) of 0.4% and an Eos (6 h) of 1%. For the same compound, the Fbg (6 h) was 231.6 mg/dL, the Hb (6 h) was 13.4 g/dL and the Ht (6 h) was 37.9%. It also gave a Lym (6 h) of 76%, an MCH (6 h) of 20.8 pg and an MCHC (6 h) of 35.3%. For the same compound, the MCV (6 h) was 58.9 fL, the Mono (6 h) was 2.8% and the Neu (6 h) was 19.2%. For the same compound, the PT (6 h) was 12.3 s, the Plat (6 h) was 130.4 x10_4/uL and the RBC (6 h) was 643.6 x10_4/ul. The Ret (6 h) was 7.9%, the WBC (6 h) was 75.4 x10_2/uL and the KIDNEY_L (6 h) was 0.9 g. For the same compound, the KIDNEY_R (6 h) was 0.9 g, the KIDNEY_TOTAL (6 h) was 1.8 g and the LIVER (6 h) was 8.7 g. The ALP (6 h) was 940.2 IU/L, the ALT (6 h) was 31.6 IU/L and the AST (6 h) was 68.4 IU/L. The CRE (6 h) was 0.4 mg/dL, the DBIL (6 h) was 0.08 mg/dL and the GLC (6 h) was 189 mg/dL. For the same compound, the IP (6 h) was 10.1 mg/dL, the K (6 h) was 3.9 meq/L and the LDH (6 h) was 212 IU/L. It also gave a Na (6 h) of 141.4 meq/L, a PL (6 h) of 137.2 mg/dL and an RALB (6 h) of 3.4 g/dL. The TBIL (6 h) was 0.1 mg/dL, the TC (6 h) was 77.8 mg/dL and the TP (6 h) was 5.5 g/dL. It also gave a gamma-GTP (6 h) of 0.8 IU/L, a TERMINAL_BW (9 h) of 208 g and an APTT (9 h) of 17.3 s. The Bas (9 h) was 0.2%, the Eos (9 h) was 0.6% and the Fbg (9 h) was 226.6 mg/dL. For the same compound, the Hb (9 h) was 13.3 g/dL, the Ht (9 h) was 37.5% and the Lym (9 h) was 74.6%. For the same compound, the MCH (9 h) was 21.4 pg, the MCHC (9 h) was 35.4% and the MCV (9 h) was 60.5 fL. For the same compound, the Mono (9 h) was 2.8%, the Neu (9 h) was 20.6% and the PT (9 h) was 12.7 s. The Plat (9 h) was 123.9 x10_4/uL, the RBC (9 h) was 621.6 x10_4/ul and the Ret (9 h) was 7.5%. The WBC (9 h) was 81 x10_2/uL, the KIDNEY_L (9 h) was 0.9 g and the KIDNEY_R (9 h) was 0.9 g. The KIDNEY_TOTAL (9 h) was 1.9 g, the LIVER (9 h) was 8.3 g and the ALP (9 h) was 955 IU/L. It also gave an ALT (9 h) of 29.6 IU/L, an AST (9 h) of 69.8 IU/L and a CRE (9 h) of 0.4 mg/dL. For the same compound, the DBIL (9 h) was 0.082 mg/dL, the GLC (9 h) was 199.8 mg/dL and the IP (9 h) was 10 mg/dL. It also gave a K (9 h) of 3.8 meq/L, an LDH (9 h) of 151.2 IU/L and a Na (9 h) of 142.6 meq/L. For the same compound, the PL (9 h) was 141.6 mg/dL, the RALB (9 h) was 3.4 g/dL and the TBIL (9 h) was 0.1 mg/dL. For the same compound, the TC (9 h) was 77.6 mg/dL, the TP (9 h) was 5.4 g/dL and the gamma-GTP (9 h) was 1.4 IU/L. The TERMINAL_BW (24 h) was 219.8 g, the APTT (24 h) was 21.2 s and the Bas (24 h) was 1%. It also gave an Eos (24 h) of 1%, a Fbg (24 h) of 222 mg/dL and a Hb (24 h) of 13.6 g/dL. It also gave a Ht (24 h) of 38.3%, a Lym (24 h) of 77.8% and an MCH (24 h) of 21.7 pg. The MCHC (24 h) was 35.5%, the MCV (24 h) was 61.3 fL and the Mono (24 h) was 2.8%. The Neu (24 h) was 16.8%, the PT (24 h) was 12 s and the Plat (24 h) was 124.9 x10_4/uL. The RBC (24 h) was 624.4 x10_4/ul, the Ret (24 h) was 6.3% and the WBC (24 h) was 116 x10_2/uL. For the same compound, the KIDNEY_L (24 h) was 1 g, the KIDNEY_R (24 h) was 1 g and the KIDNEY_TOTAL (24 h) was 2 g. It also gave an LIVER (24 h) of 10.1 g, an ALP (24 h) of 1052.4 IU/L and an ALT (24 h) of 37.8 IU/L. For the same compound, the AST (24 h) was 70.2 IU/L, the CRE (24 h) was 0.4 mg/dL and the DBIL (24 h) was 0.072 mg/dL. The GLC (24 h) was 188.6 mg/dL, the IP (24 h) was 8.1 mg/dL and the K (24 h) was 4.1 meq/L. It also gave an LDH (24 h) of 141.4 IU/L, a Na (24 h) of 141.6 meq/L and a PL (24 h) of 136.4 mg/dL. For the same compound, the RALB (24 h) was 3.4 g/dL, the TBIL (24 h) was 0.1 mg/dL and the TC (24 h) was 72.2 mg/dL. For the same compound, the TP (24 h) was 5.5 g/dL and the gamma-GTP (24 h) was 1 IU/L.

— ChEMBL document CHEMBL3885861, “Open TG-GATES”
